The text below walks through data of US12023323B2, “Carbohydrate-binding small molecules with antiviral activity” (priority 2018, dated 2024).

Data set [1] relates to ZIKV GFP RVPs.
For data set [2] the following is noted: Table 1, anti-ZIKV assay.
Data set [3] can be described thus: 1H NMR titration with octyloxy pyranoside α-Man. In kind it is binding. Conditions: NMR titrations in CD2Cl2 at 298 K, 1:1 binding.
The nature of data set [4]: 1H NMR titration with octyloxy pyranoside β-Glc. In kind it is binding. The conditions noted are these: for K1 (1:1 association constant) with β-Glc: CD2Cl2, 298 K; for affinity for β-Glc relative to SCR001: fold / ratio SCR:SCR001.
Data set [5] is described as follows: 1H NMR titration with octyloxy pyranoside α-Glc. The conditions noted are these: for binding to α-Glc in words: NMR titrations. In kind it is binding.
Data set [6] can be described thus: 1H NMR titration with octyloxy pyranoside β-Gal. In kind it is binding. Conditions: NMR titrations.
The nature of data set [7]: Selectivity across the five octyloxy pyranosides from NMR titrations. The conditions noted are these: for glycan preference in words: five octyloxy pyranosides, CD2Cl2, 298 K; for affinity for β-Glc over α-Man: times. In kind it is binding.
Data set [8] concerns ZIKV GFP RVPs. Put plainly: microbe, parasite or virus in culture. The conditions noted are these: Zika virus, Vero.
The nature of data set [9]: Cellular toxicity, CellTiter-Glo, Vero cells. Conditions: African green monkey. In general terms: ATP-based viability assays read luminescence as a measure of living cells.
The next data set has as its system Vero cells. Kind of data set: Cellular toxicity, CellTiter-Glo, Vero cells.
Data set [10] can be described thus: 1H NMR titration with octyloxy pyranoside β-Man. In kind it is binding. Conditions: NMR titrations in CD2Cl2 at 298 K, 1:1 binding.
Data set [11] in a line: NMR dilution experiments for dimerization. In kind it is physicochemical. The conditions noted are these: dilution experiments in CD2Cl2.
The next data set concerns N154Q mutant ZIKV RVPs. In kind it is cell-based, Zika virus. Conditions: Vero cells.
The subject of the next data set is HIV-1. Conditions: cell culture; cited from earlier work.
[12] abbreviates: Table 3, Vero cells, ZIKV RVPs, average of at least two independent measurements.
Setting [13] is: Table 3 study, Vero cells, ZIKV RVPs, unit μm [sic].

SMILES strings stand for the structures. Like-named read-outs stand apart in the source and are kept apart here.

For the compound `O=C(NCc1cc(CNC(=O)c2ccco2)cc(-c2cc(CNC(=O)c3ccco3)cc(CNC(=O)c3ccco3)c2)c1)c1ccco1` [SCR007, N,N′,N′″-([1,1′-biphenyl]-3,3′,5,5′-tetrayltetrakis(methylene))tetrakis(furan-2-carboxamide)], in the data set with ZIKV GFP RVPs [1], the “anti-ZIKV activity in words” value was “not effective”. In addition, the “solubility (words printed in the IC50 column)” value in data set [2] was “not soluble”.

Usually IC50 stands for the point on the concentration scale where inhibition reaches its midpoint. Regarding `c1cncc(CNCc2cc(CNCc3cccnc3)cc(-c3cc(CNCc4cccnc4)cc(CNCc4cccnc4)c3)c2)c1` [SCR021, 1,1′,1″,1′″-([1,1′-biphenyl]-3,3′,5,5′-tetrayl)tetrakis(N-(pyridin-3-ylmethyl)methanamine)], in [3], the “Ka (M^−1) with α-Man” value turned out to be 490 M⁻¹. For the same compound, in data set [4] (1:2 SCR·glycan complexes), the “K2 (1:2 SCR·glycan association constant) with β-Glc” value turned out to be 12000 M⁻¹ and the “cumulative association constant β with β-Glc” value was 3.3×10^4 M^−2. For the same compound, in data set [4], the “K1 (1:1 association constant) with β-Glc” value worked out at 2.7 M⁻¹ and the “affinity for β-Glc relative to SCR001” value is listed as 25. Also, the “binding to α-Glc in words” value in data set [5] was “no substantial binding”. Moreover, the “binding to β-Gal in words” value in data set [6] is “no substantial binding”. In data set [7], the “glycan preference in words” value is on record as “prefer β-Glc” and the “affinity for β-Glc over α-Man” value amounted to 67. The IC50 in the data set on ZIKV GFP RVPs [8] (setting [12]) was > 100 µM. For the same compound, the IC50 in the data set with ZIKV GFP RVPs [8] (setting [13]) is > 100 µM.

The term CC50 denotes the concentration that lowers cell viability or growth by half. For the compound `Oc1ccccc1CNCc1cc(CNCc2ccccc2O)cc(-c2cc(CNCc3ccccc3O)cc(CNCc3ccccc3O)c2)c1` [SCR022, 2,2′,2″,2′″-((([1,1′-biphenyl]-3,3′,5,5′-tetrayltetrakis(methylene))tetrakis(azanediyl))tetrakis(methylene))tetraphenol], in [3], the “Ka (M^−1) with α-Man” value came to 280 M⁻¹. Besides, in [4] (2:1 SCR·glycan complexes), the “K2 (2:1 SCR·glycan association constant) with β-Glc” value was found to be 690 M⁻¹ and the “cumulative association constant β with β-Glc” value is listed as 8.1×10^4 M^−2. Moreover, in data set [4], the “K1 (1:1 association constant) with β-Glc” value was 120 M⁻¹ and the “affinity for β-Glc relative to SCR001” value is 62. The “binding to α-Glc in words” value in data set [5] is “no substantial binding”. Also, in [6], the “binding to β-Gal in words” value is “no substantial binding”. For the same compound, in [7], the “glycan preference in words” value was “prefer β-Glc” and the “affinity for β-Glc over α-Man” value is 290. Moreover, in the data set on ZIKV GFP RVPs [1] (Table 3, Vero cells), the “therapeutic index (TC50/IC50)” value came to 2. In the data set with ZIKV GFP RVPs [1] (Vero cells, ZIKV RVPs), the “anti-ZIKV activity in words” value is given as “potent anti-ZIKV activity”. The compound further registered an IC50 in the data set on ZIKV GFP RVPs [8] (setting [12]) of 2.5 ± 0.6 µM. Also, the IC50 with ZIKV GFP RVPs [8] (setting [13]) was < 5 µM. The IC50 with ZIKV GFP RVPs [8] (read-out: IC50 (strong antiviral activity), Vero cells, ZIKV RVPs) is < 5 µM. For the same compound, in [9], the CC50 at 72 h amounted to 4.6 ± 1.1 µM. In addition, in the data set on Vero cells, the “cellular toxicity in words” value was “toxic to Vero cells”.

`Oc1cccc(CNCc2cc(CNCc3cccc(O)c3)cc(-c3cc(CNCc4cccc(O)c4)cc(CNCc4cccc(O)c4)c3)c2)c1` [SCR023, 3,3′,3″,3′″-((([1,1′-biphenyl]-3,3′,5,5′-tetrayltetrakis(methylene))tetrakis(azanediyl))tetrakis(methylene))tetraphenol]: the “Ka (M^−1) with β-Man” value in [10] is 250 M⁻¹. In addition, the “Ka (M^−1) with α-Man” value in data set [3] came to 150 M⁻¹. Also, in data set [5] (CD2Cl2, 298 K, 1:1 binding), the “Ka with α-Glc” value is 310 M⁻¹. The dimerization in words entry in data set [11] is recorded as “Dimerization was observed”. The “IC50 relative to regioisomer” value in the data set on ZIKV GFP RVPs [1] (SCR023 vs SCR022, SCR017 vs SCR001) is listed as “at least four times higher”. The “therapeutic index (TC50/IC50)” value with ZIKV GFP RVPs [1] (Table 3, Vero cells) stood at 20. Moreover, the values for the IC50 with ZIKV GFP RVPs [1] (setting [12]) and with ZIKV GFP RVPs [8] (setting [12]) were 10.6 ± 5.9 µM and < 20 µM, respectively. The “anti-ZIKV activity in words” value in the data set on ZIKV GFP RVPs [1] (Vero cells, ZIKV RVPs) is on record as “weaker inhibition”. This compound showed a CC50 at 72 h in [9] of 207 ± 79 µM.

In the case of `Cc1ccc(C(=O)Nc2ccc(S(=O)(=O)O)c3cc(S(=O)(=O)O)cc(S(=O)(=O)O)c23)cc1NC(=O)c1cccc(NC(=O)Nc2cccc(C(=O)Nc3cc(C(=O)Nc4ccc(S(=O)(=O)O)c5cc(S(=O)(=O)O)cc(S(=O)(=O)O)c45)ccc3C)c2)c1` [Suramin, reference compound], the “inhibition of N154Q mutant RVPs in words” value in the data set with N154Q mutant ZIKV RVPs is “inhibited”. The “anti-ZIKV activity in words” value with ZIKV GFP RVPs [1] (Vero cells, ZIKV RVPs) is “dose dependent inhibition of ZIKV infection”. The compound also displayed an IC50 in the data set on ZIKV GFP RVPs [8] (Table 1, Vero cells, compounds 30 min before ZIKV RVPs, GFP+ cells 72 h postinfection) of 44 ± 4.19 µM. Moreover, the CC50 at 72 h in [9] was > 200 µM.

As to `CN[C@@H]1[C@H](O[C@@H]2OC[C@@H](O)[C@H](O)[C@H]2O)[C@@H](O)[C@H](O[C@H]2c3cc(C)c(C(=O)N[C@H](C)C(=O)O)c(O)c3-c3c(cc4c(c3O)C(=O)c3cc(OC)cc(O)c3C4=O)[C@@H]2O)O[C@@H]1C` [pradimicin A], the “50% effective concentration against HIV-1” value in the data set with HIV-1 was “micromolar concentration range”.
